Results published in patent US20240299424A1, “USE OF PHYTOCANNABINOIDS FOR TREATING ENDOMETRIAL CANCER AND ENDOMETRIOSIS” (INTEGRATIVE THERAPY DISCOVERY LAB S.R.L., priority 2021, published 2024).

Assays:
[1] = system: endometrial cancer cell lines; assay: MTT cell viability, endometrial cancer cell lines tested (Ishikawa and PCEM004A, stated jointly); assay type: cell-based, human; settings: for dose dependence of effect on cell viability: individual phytocannabinoids
Experimental: (§1) Ishikawa is a well differentiated type I cell line, was purchased from Sigma Aldrich (Milan, Italy). Ishikawa cells were grown in EMEM medium (Lonza, Milan, Italy), supplemented with 5% fetal bovine serum (FBS), 2 mM/L of glutamine, 100 IU/ml of penicillin, and […] of streptomycin. Primary EC cells PCEM004A, poorly differentiated mixed type I/II cell line, was grown in RPMI1640, supplemented with 20% FBS, 2 mM/L of glutamine, 100 IU/ml of penicillin, and […] of streptomycin. Immortalized human endometriotic cell line (12Z) was generated by infecting cells, obtained from a person undergoing laparoscopy, with SV40 virus. This cell line was purchased by Applied Biological Materials Inc and was maintained in Prigrow III medium supplemented with 20% no-heat inactivated FBS, 100 IU/ml of penicillin and […] of streptomycin. Human pancreatic ductal adenocarcinoma PANC-1 cell line was purchased by Sigma Aldrich (Milan, Italy) and cultured in DMEM high glucose medium (EuroClone, Milan, Italy) supplemented with 10% FBS, 2 mM L-glutamine, 100 IU/mL penicillin, […] streptomycin and 1 mM sodium pyruvate. The human glioblastoma U251 cell line (grade IV), obtained from European Collection of Cell Cultures (ECACC, Salisbury, UK), was maintained in EMEM supplemented with 10% FBS, 2 mmol/L L-glutamine, 100 IU/mL penicillin and 100 μg streptomicin. Media were changed every 48 hours until cells were 90% confluent. All cell lines were maintained at 37 C with 5% CO2 and 95% humidity.
(§2) EC cell lines, PANC-1, U251, and 12Z (3×10^4 cells/ml) were plated in 96-well plates, in a final volume of 100 microl/well. After 24 hours, treatments or vehicles were added for 72 hours. At least six replicates were used for each treatment. At the indicated time point, cell viability was assessed by adding 0.8 mg/ml of 3-[4,5-dimethylthiazol-2-yl]-2,5 diphenyl tetrazolium bromide (MTT, Sigma-Aldrich) to the media. After 3 hours, the plates were centrifuged, the supernatant was removed, and the pellet was solubilized with 100 microl/well of DMSO. The absorbance of the samples against a background control (medium alone) was measured at 570 nm using an ELISA reader microliter plate (BioTek Instruments, Winooski, VT, United States). IC50 was calculated by PRISM 5.0a software, for single phytocannabinoids.

[2] = system: 12Z endometriotic cell line; assay: Transwell invasion assay, 12Z endometriotic cells; assay type: cell-based, human; settings: non-cytotoxic dose, 24 hours, Transwell/Matrigel, major effect order THC>CBG>CBD>CBDV>CBN>CBC, FIG. 22-30
Experimental: as §1
12Z cell invasion was evaluated by Transwell invasion assay using Transwell chambers (BD Biosciences, Franklin Lakes, NJ, USA) characterized by the upper face of the polycarbonate membrane covered with 1 mg/ml Matrigel. A total of 750 μl cell culture medium supplemented with 10% FBS was added in the lower chamber. Serum free culture medium ([…]) containing 2.5×10^4 12Z endometriotic cells was plated into the upper chamber with the appropriate treatment. After 24 hours of incubation, the cells remaining in the upper chamber were removed by cotton swabs. The cells on the lower and inner surface of the membrane were fixed in cold methanol, stained with hoechst and observed using a fluorescence microscope (BX51 fluorescence microscope, Olympus, Milan, Italy). A total of ten fields at ×10 magnification were selected at random to measure the average cell coverage using ImageJ software version 1.45s (National Institutes of Health, Bethesda, MD, USA). The experiments were performed in triplicate at least three times independently.

PANC-1 cells = assay: MTT cell viability assay, PANC-1 pancreatic ductal adenocarcinoma cell line; assay type: cell-based, human; settings: PANC-1, 72 hours post-treatment, FIG. 11
Experimental: as §1, §2

Ishikawa cells = assay: MTT cell viability assay, Ishikawa type I endometrial cancer cell line; assay type: cell-based, human; settings: 72 hours; for cytotoxicity (cell viability, % vs vehicle) in combination: in double with cannabidiol (10, 15 and 20 microM CBD), FIG. 3-4; for cytotoxicity (cell viability, % vs vehicle): phytocannabinoid alone, FIG. 1; for cytotoxicity (cell viability, % vs vehicle) in combination with chemotherapeutic drugs: with paclitaxel (PAC), doxorubicin (DOX) and cisplatin (CIS), FIG. 7-10
Experimental: as §1, §2

[3] = system: 12Z endometriotic cell line; assay: MTT cell viability assay, 12Z endometriotic cell line; assay type: cell-based, human; settings: single administration, 72 hours post-treatment, FIG. 15-20
Experimental: as §1, §2

U251 cells = assay: MTT cell viability assay, U251 glioblastoma cell line; assay type: cell-based, human; settings: U251, 72 hours post-treatment, FIG. 13
Experimental: as §1, §2

PCEM004A cells = assay: MTT cell viability assay, primary mixed type PCEM004A endometrial cancer cell line; assay type: cell-based, human; settings: 72 hours; for cytotoxicity (cell viability, % vs vehicle): phytocannabinoid alone, FIG. 5; for cytotoxicity (cell viability, % vs vehicle) in combination with chemotherapeutic drugs: with paclitaxel (PAC), doxorubicin (DOX) and cisplatin (CIS), FIG. 7-10
Experimental: as §1, §2

CXCL8 = assay: RT/PCR TaqMan array, CXCL8 gene expression in 12Z cells; assay type: cell-based, human; settings: 48 hours, CBG, CBC, CBN 30 microM, CBD, CBDV 10 microM, THC 40 microM
Experimental: (§3) Total RNA from untreated or single treated 12Z cell line with CBD, CBG, CBC, CBN, CBDV and THC was extracted using Rneasy Mini kit (Qiagen, Milan, Italy). One microgram of total RNA from each sample was subjected to reverse transcription in a total volume of 20 μL using the High-Capacity cDNA Archive Kit (Applied Biosystem, Foster City, PA, USA) according to the instructions. cDNAs were analyzed by qRT-PCR performed using an IQ5 Multicolor Real time PCR Detection system. Quantitative real-time gene expression was performed with the TaqMan® Array Plate, containing 15 associated cytokine genes and beta-actin as endogenous control gene, was purchased (Thermo Fisher, Grand Island, NY, USA) and used to evaluate the treatments in modulating 12Z-related genes. Measurement of housekeeping gene (beta-Actin) on the samples was used to normalize mRNA content. The gene expression levels of treated cell lines were expressed as normalized fold compared with vehicle-treated cells.

IL-6 = assay: RT/PCR TaqMan array, IL-6 gene expression in 12Z cells; assay type: cell-based, human; settings: 48 hours, CBG, CBC, CBN 30 microM, CBD, CBDV 10 microM, THC 40 microM
Experimental: as §3

[4] = system: type I cells and mixed type endometrial cancer cell lines; settings: cited from earlier work
IL-33 = assay: RT/PCR TaqMan array, IL-33 gene expression in 12Z cells; assay type: cell-based, human; settings: 48 hours, CBG, CBC, CBN 30 microM, CBD, CBDV 10 microM, THC 40 microM
Experimental: as §3

IL-1beta = assay: RT/PCR TaqMan array, IL-1beta gene expression in 12Z cells; assay type: cell-based, human; settings: 48 hours, CBG, CBC, CBN 30 microM, CBD, CBDV 10 microM, THC 40 microM
Experimental: as §3

STAT-3 = assay: RT/PCR TaqMan array, STAT-3 gene expression in 12Z cells; assay type: cell-based, human; settings: 48 hours, CBG, CBC, CBN 30 microM, CBD, CBDV 10 microM, THC 40 microM
Experimental: as §3

SMILES	dose dependence of effect on cell viability ([1]; endometrial cancer cell lines)	endometriosis cell invasion [2]	cytotoxicity (cell viability, % vs vehicle) (PANC-1 cells)	cytotoxicity (cell viability, % vs vehicle) in combination (Ishikawa cells)	cytotoxicity (cell viability, % vs vehicle) (Ishikawa cells)	cytotoxicity (cell viability, % vs vehicle) in combination with chemotherapeutic drugs (Ishikawa cells)	cytotoxicity (cell viability, % vs vehicle) [3]	cytotoxicity (cell viability, % vs vehicle) (U251 cells)	cytotoxicity (cell viability, % vs vehicle) (PCEM004A cells)	cytotoxicity (cell viability, % vs vehicle) in combination with chemotherapeutic drugs (PCEM004A cells)	CXCL8 gene expression (normalized versus vehicle) (CXCL8)	IL-6 gene expression (normalized versus vehicle) (IL-6)	chemotherapeutic drugs cytotoxicity ([4]; endometrial cancer cell lines)	cell viability ([4]; type I cells (cell death) and mixed type endometrial cancer cell lines (autophagy))	IL-33 gene expression (normalized versus vehicle) (IL-33)	IL-1beta gene expression (normalized versus vehicle) (IL-1beta)	STAT-3 gene expression (normalized versus vehicle) (STAT-3)	efficacy in reducing cell viability (rank among individual phytocannabinoids) ([1]; endometrial cancer cell lines, order: CBN, followed by CBDV, CBG, THC and CBC)	efficacy of phytocannabinoid combinations in reducing cell viability ([1]; endometrial cancer cells, combinations of phytocannabinoids)
CCCCCc1cc(O)c2c(c1)OC(C)(CCC=C(C)C)C=C2 (stereo not drawn) [CBC, 2-methyl-2-(4-methylpent-3-enyl)-7-pentylchromen-5-ol]	dose dependent effect	effective in reducing endometriosis cells invasion	induced cytotoxicity	induced cytotoxicity	induced cytotoxicity	induced cytotoxicity	induced cytotoxicity	induced cytotoxicity	induced cytotoxicity	induced cytotoxicity									
C=C(C)[C@@H]1CCC(C)=C[C@H]1c1c(O)cc(CCCCC)cc1O [CBD, 2-[(1R,6R)-3-methyl-6-prop-1-en-2-ylcyclohex-2-en-1-yl]-5-pentylbenzene-1,3-diol, reference compound]	dose dependent effect	effective in reducing endometriosis cells invasion					induced cytotoxicity				reduced	reduced	improves chemotherapeutic drugs cytotoxicity	reduces cell viability	reduced	reduced	reduced		
C=C(C)[C@@H]1CCC(C)=C[C@H]1c1c(O)cc(CCC)cc1O [CBDV, 2-[(1R,6R)-3-methyl-6-prop-1-en-2-ylcyclohex-2-en-1-yl]-5-propylbenzene-1,3-diol]	dose dependent effect	effective in reducing endometriosis cells invasion	induced cytotoxicity	induced cytotoxicity	induced cytotoxicity	induced cytotoxicity	induced cytotoxicity	induced cytotoxicity	induced cytotoxicity	induced cytotoxicity	reduced	reduced			reduced				
CCCCCc1cc(O)c(C/C=C(\C)CCC=C(C)C)c(O)c1 [CBG, 2-[(2E)-3,7-dimethylocta-2,6-dienyl]-5-pentylbenzene-1,3-diol]	dose dependent effect	effective in reducing endometriosis cells invasion	induced cytotoxicity	induced cytotoxicity	induced cytotoxicity	induced cytotoxicity	induced cytotoxicity	induced cytotoxicity	induced cytotoxicity	induced cytotoxicity	reduced				reduced	reduced			
CCCCCc1cc(O)c2c(c1)OC(C)(C)c1ccc(C)cc1-2 [CBN, 6,6,9-trimethyl-3-pentylbenzo[c]chromen-1-ol]		effective in reducing endometriosis cells invasion	induced cytotoxicity	induced cytotoxicity	induced cytotoxicity	induced cytotoxicity	induced cytotoxicity	induced cytotoxicity	induced cytotoxicity	induced cytotoxicity	reduced							highest	amplified the effect of all cannabinoids
CCCCCc1cc(O)c2c(c1)OC(C)(C)[C@@H]1CCC(C)=C[C@@H]21 [THC, (6aR,10aR)-6,6,9-trimethyl-3-pentyl-6a,7,8,10a-tetrahydrobenzo[c]chromen-1-ol, reference compound]	dose dependent effect	effective in reducing endometriosis cells invasion	induced cytotoxicity	induced cytotoxicity	induced cytotoxicity	induced cytotoxicity	induced cytotoxicity	induced cytotoxicity	induced cytotoxicity	induced cytotoxicity		reduced							
